In patent US10689381B2 (priority 2017, dated 2020):

Key:
L1210 = assay: cells; assay type: cell-based, mouse; conditions: Table 2
Protocol: (§1) A population of cells (>1×10^6 cells/mL as determined with a hemocytometer) was diluted with Dulbecco's Modified Eagle Medium (DMEM, Gibco) containing 10% fetal bovine serum (FBS, Gibco) to give a final concentration of 30,000 cells/mL. To each well of a 96-well plate (Corning® Costar®) was added 100 μL of the cell media solution with a multichannel pipet.
(§2) The test compounds were then added to the plate as follows: test compounds were diluted in DMSO to a concentration of 1 mM. 10-Fold serial dilutions in DMSO were next performed on a separate 96-well plate. Fresh culture media (100 μL) was added to each well of cells resulting in 200 μL of medium per well followed by 2 μL of each test agent. Compounds were tested in duplicate (n=2-8 times) at six concentrations between 0-1000 nM or 0-10000 nM. Following the addition of compound, cultures were incubated for an additional 72 hours.
(§3) The plates were incubated at 37° C. for 5 minutes (L1210) or 15 min (HCT116 and HCT116/VM46).

HCT116 = assay: cells; assay type: cell-based, human; conditions: for IC50: Table 2, read-out: IC50 HCT116; for potency relative to vinblastine (more potent): vinblastine-sensitive cell lines
Protocol: as §1, §2, §3

SMILES	IC50 (L1210) [nM]	IC50 (HCT116) [nM]	potency relative to vinblastine (more potent) (HCT116) [fold]
CC[C@]1(NC(=O)c2ccccc2F)C[C@H]2CN(CCc3c([nH]c4ccccc34)[C@@](C(=O)OC)(c3cc4c(cc3OC)N(C)[C@H]3[C@@](O)(C(=O)OC)[C@H](OC(C)=O)[C@]5(CC)C=CCN6CC[C@]43[C@@H]65)C2)C1 [Compound 46]	8.4	7.7	–
CC[C@]1(NC(=O)c2ccc(Cl)cc2)C[C@H]2CN(CCc3c([nH]c4ccccc34)[C@@](C(=O)OC)(c3cc4c(cc3OC)N(C)[C@H]3[C@@](O)(C(=O)OC)[C@H](OC(C)=O)[C@]5(CC)C=CCN6CC[C@]43[C@@H]65)C2)C1 [Compound 47]	3.1	3.2	–
CC[C@]1(NC(=O)c2cccc(Cl)c2)C[C@H]2CN(CCc3c([nH]c4ccccc34)[C@@](C(=O)OC)(c3cc4c(cc3OC)N(C)[C@H]3[C@@](O)(C(=O)OC)[C@H](OC(C)=O)[C@]5(CC)C=CCN6CC[C@]43[C@@H]65)C2)C1 [Compound 48]	4.2	2.7	–
CC[C@]1(NC(=O)c2ccccc2Cl)C[C@H]2CN(CCc3c([nH]c4ccccc34)[C@@](C(=O)OC)(c3cc4c(cc3OC)N(C)[C@H]3[C@@](O)(C(=O)OC)[C@H](OC(C)=O)[C@]5(CC)C=CCN6CC[C@]43[C@@H]65)C2)C1 [Compound 49]	50	55	–
CC[C@]1(NC(=O)c2ccc(Cl)c(Cl)c2)C[C@H]2CN(CCc3c([nH]c4ccccc34)[C@@](C(=O)OC)(c3cc4c(cc3OC)N(C)[C@H]3[C@@](O)(C(=O)OC)[C@H](OC(C)=O)[C@]5(CC)C=CCN6CC[C@]43[C@@H]65)C2)C1 [Compound 50]	8.5	8.7	–
CC[C@]1(NC(=O)c2ccc(Br)cc2)C[C@H]2CN(CCc3c([nH]c4ccccc34)[C@@](C(=O)OC)(c3cc4c(cc3OC)N(C)[C@H]3[C@@](O)(C(=O)OC)[C@H](OC(C)=O)[C@]5(CC)C=CCN6CC[C@]43[C@@H]65)C2)C1 [Compound 51]	2.7	1.4	–
CC[C@]1(NC(=O)c2cccc(Br)c2)C[C@H]2CN(CCc3c([nH]c4ccccc34)[C@@](C(=O)OC)(c3cc4c(cc3OC)N(C)[C@H]3[C@@](O)(C(=O)OC)[C@H](OC(C)=O)[C@]5(CC)C=CCN6CC[C@]43[C@@H]65)C2)C1 [Compound 52]	5	6.3	–
CCC1(NC(=O)c2ccc(Br)c(Br)c2)CC2CN(CCc3c([nH]c4ccccc34)C(C(=O)OC)(c3cc4c(cc3OC)N(C)C3C(O)(C(=O)OC)C(OC(C)=O)C5(CC)C=CCN6CCC43C65)C2)C1 (stereo not shown) [Compound 53]	60	40	–
CCC1(NC(=O)c2ccc(C#N)c(C)c2)CC2CN(CCc3c([nH]c4ccccc34)C(C(=O)OC)(c3cc4c(cc3OC)N(C)C3C(O)(C(=O)OC)C(OC(C)=O)C5(CC)C=CCN6CCC43C65)C2)C1 (stereo not shown) [Compound 55]	4.8	6.2	–
CCC1(NC(=O)c2ccc([N+](=O)[O-])cc2)CC2CN(CCc3c([nH]c4ccccc34)C(C(=O)OC)(c3cc4c(cc3OC)N(C)C3C(O)(C(=O)OC)C(OC(C)=O)C5(CC)C=CCN6CCC43C65)C2)C1 (stereo not shown) [Compound 56]	6.1	6.1	–
CC[C@]1(NC(=O)c2ccc(N)cc2)C[C@H]2CN(CCc3c([nH]c4ccccc34)[C@@](C(=O)OC)(c3cc4c(cc3OC)N(C)[C@H]3[C@@](O)(C(=O)OC)[C@H](OC(C)=O)[C@]5(CC)C=CCN6CC[C@]43[C@@H]65)C2)C1 [Compound 57]	0.4	0.4	–
CCC1(NC(=O)c2ccc(NC(=O)OC)cc2)CC2CN(CCc3c([nH]c4ccccc34)C(C(=O)OC)(c3cc4c(cc3OC)N(C)C3C(O)(C(=O)OC)C(OC(C)=O)C5(CC)C=CCN6CCC43C65)C2)C1 (stereo not shown) [Compound 59]	1.5	0.8	–
CC[C@]1(NC(=O)c2ccc(NC)cc2)C[C@H]2CN(CCc3c([nH]c4ccccc34)[C@@](C(=O)OC)(c3cc4c(cc3OC)N(C)[C@H]3[C@@](O)(C(=O)OC)[C@H](OC(C)=O)[C@]5(CC)C=CCN6CC[C@]43[C@@H]65)C2)C1 [Compound 62]	0.38	0.33	–
CC[C@]1(NC(=O)c2ccc(N(C)C(=O)OC(C)(C)C)cc2)C[C@H]2CN(CCc3c([nH]c4ccccc34)[C@@](C(=O)OC)(c3cc4c(cc3OC)N(C)[C@H]3[C@@](O)(C(=O)OC)[C@H](OC(C)=O)[C@]5(CC)C=CCN6CC[C@]43[C@@H]65)C2)C1 [Compound 63]	4.1	3.9	–
CCC1(NC(=O)c2ccc(CN)cc2)CC2CN(CCc3c([nH]c4ccccc34)C(C(=O)OC)(c3cc4c(cc3OC)N(C)C3C(O)(C(=O)OC)C(OC(C)=O)C5(CC)C=CCN6CCC43C65)C2)C1 (stereo not shown) [Compound 65]	25	3.5	–
CC[C@]1(NC(=O)c2ccc(CNC(=O)OC(C)(C)C)cc2)C[C@H]2CN(CCc3c([nH]c4ccccc34)[C@@](C(=O)OC)(c3cc4c(cc3OC)N(C)[C@H]3[C@@](O)(C(=O)OC)[C@H](OC(C)=O)[C@]5(CC)C=CCN6CC[C@]43[C@@H]65)C2)C1 [Compound 66]	0.76	0.7	–

SMILES	IC50 (L1210) [nM]	IC50 (HCT116) [nM]	potency relative to vinblastine (more potent) (HCT116) [fold]
CCC1(NC(=O)c2ccc(OC)cc2)CC2CN(CCc3c([nH]c4ccccc34)C(C(=O)OC)(c3cc4c(cc3OC)N(C)C3C(O)(C(=O)OC)C(OC(C)=O)C5(CC)C=CCN6CCC43C65)C2)C1 (stereo not shown) [Compound 67]	0.25	0.3	–
CCC1(NC(=O)c2cccc(OC)c2)CC2CN(CCc3c([nH]c4ccccc34)C(C(=O)OC)(c3cc4c(cc3OC)N(C)C3C(O)(C(=O)OC)C(OC(C)=O)C5(CC)C=CCN6CCC43C65)C2)C1 (stereo not shown) [Compound 68]	0.6	0.8	–
CCC1(NC(=O)c2ccccc2OC)CC2CN(CCc3c([nH]c4ccccc34)C(C(=O)OC)(c3cc4c(cc3OC)N(C)C3C(O)(C(=O)OC)C(OC(C)=O)C5(CC)C=CCN6CCC43C65)C2)C1 (stereo not shown) [Compound 69]	30	10	–
CCC1(NC(=O)c2ccc(OC)c(OC)c2)CC2CN(CCc3c([nH]c4ccccc34)C(C(=O)OC)(c3cc4c(cc3OC)N(C)C3C(O)(C(=O)OC)C(OC(C)=O)C5(CC)C=CCN6CCC43C65)C2)C1 (stereo not shown) [Compound 70]	0.06	0.07	–
CC[C@]1(NC(=O)c2cc(OC)c(OC)c(OC)c2)C[C@H]2CN(CCc3c([nH]c4ccccc34)[C@@](C(=O)OC)(c3cc4c(cc3OC)N(C)[C@H]3[C@@](O)(C(=O)OC)[C@H](OC(C)=O)[C@]5(CC)C=CCN6CC[C@]43[C@@H]65)C2)C1 [Compound 71]	0.09	0.1	–
CCOc1ccc(C(=O)NC2(CC)CC3CN(CCc4c([nH]c5ccccc45)C(C(=O)OC)(c4cc5c(cc4OC)N(C)C4C(O)(C(=O)OC)C(OC(C)=O)C6(CC)C=CCN7CCC54C76)C3)C2)cc1 (stereo not shown) [Compound 72]	0.6	0.6	10
CCOc1ccc(C(=O)NC2(CC)CC3CN(CCc4c([nH]c5ccccc45)C(C(=O)OC)(c4cc5c(cc4OC)N(C)C4C(O)(C(=O)OC)C(OC(C)=O)C6(CC)C=CCN7CCC54C76)C3)C2)cc1OCC (stereo not shown) [Compound 73]	0.4	0.5	–
CCC1(NC(=O)c2ccc(OC(C)C)cc2)CC2CN(CCc3c([nH]c4ccccc34)C(C(=O)OC)(c3cc4c(cc3OC)N(C)C3C(O)(C(=O)OC)C(OC(C)=O)C5(CC)C=CCN6CCC43C65)C2)C1 (stereo not shown) [Compound 74]	0.7	0.8	10
CC[C@]1(NC(=O)c2ccc(OC(C)(C)C)cc2)C[C@H]2CN(CCc3c([nH]c4ccccc34)[C@@](C(=O)OC)(c3cc4c(cc3OC)N(C)[C@H]3[C@@](O)(C(=O)OC)[C@H](OC(C)=O)[C@]5(CC)C=CCN6CC[C@]43[C@@H]65)C2)C1 [Compound 75]	0.6	0.6	–
CCC1(NC(=O)c2ccc(Oc3ccccc3)cc2)CC2CN(CCc3c([nH]c4ccccc34)C(C(=O)OC)(c3cc4c(cc3OC)N(C)C3C(O)(C(=O)OC)C(OC(C)=O)C5(CC)C=CCN6CCC43C65)C2)C1 (stereo not shown) [Compound 76]	5.2	6.5	–
CC[C@]1(NC(=O)c2ccc(OCc3ccccc3)cc2)C[C@H]2CN(CCc3c([nH]c4ccccc34)[C@@](C(=O)OC)(c3cc4c(cc3OC)N(C)[C@H]3[C@@](O)(C(=O)OC)[C@H](OC(C)=O)[C@]5(CC)C=CCN6CC[C@]43[C@@H]65)C2)C1 [Compound 77]	5.4	5.7	–
CCC1(NC(=O)c2ccc(OC(F)(F)F)cc2)CC2CN(CCc3c([nH]c4ccccc34)C(C(=O)OC)(c3cc4c(cc3OC)N(C)C3C(O)(C(=O)OC)C(OC(C)=O)C5(CC)C=CCN6CCC43C65)C2)C1 (stereo not shown) [Compound 78]	5.9	4.4	–
CCC1(NC(=O)c2cccc(OC(F)(F)F)c2)CC2CN(CCc3c([nH]c4ccccc34)C(C(=O)OC)(c3cc4c(cc3OC)N(C)C3C(O)(C(=O)OC)C(OC(C)=O)C5(CC)C=CCN6CCC43C65)C2)C1 (stereo not shown) [Compound 79]	4.8	5.9	–
CC[C@]1(NC(=O)c2ccccc2OC(F)(F)F)C[C@H]2CN(CCc3c([nH]c4ccccc34)[C@@](C(=O)OC)(c3cc4c(cc3OC)N(C)[C@H]3[C@@](O)(C(=O)OC)[C@H](OC(C)=O)[C@]5(CC)C=CCN6CC[C@]43[C@@H]65)C2)C1 [Compound 80]	450	480	–
CCC1(NC(=O)c2ccc(OC(F)F)cc2)CC2CN(CCc3c([nH]c4ccccc34)C(C(=O)OC)(c3cc4c(cc3OC)N(C)C3C(O)(C(=O)OC)C(OC(C)=O)C5(CC)C=CCN6CCC43C65)C2)C1 (stereo not shown) [Compound 81]	5.9	1.7	–
